# Read-outs that look alike come from different tables or passages of the source.
# What was measured:
# MDRPA = assay type: cell-based, Pseudomonas aeruginosa
# Description: (§1) We assessed the antibiofilm activity of the peptides by determining their minimum biofilm eradication concentration (MBEC) and minimum biofilm inhibition concentration (MBIC) against drug-resistant bacteria, including MDRPA and MRSA, as previously described. A 96-well plate containing a subculture of 1 × 10^6 CFU/200 μL of bacteria was incubated overnight at 37 °C with or without peptides to test for biofilm inhibition and eradication. The untreated culture served as the negative control, and LL-37 was used as the control peptide.
# MRSA = assay type: cell-based, Staphylococcus aureus
# Description: as §1
# [1] = system: S. epidermidis (KCTC 1917); assay type: cell-based, Staphylococcus epidermidis; conditions: CLSI broth dilution, MHB, 37 °C, 18 to 24 h
# Description: (§2) Peptides were assessed for their antibacterial activity against four Gram-positive and four Gram-negative bacteria, including drug-resistant strains, in accordance with Clinical and Laboratory Standards Institute (CLSI) guidelines. The minimum inhibitory concentration (MIC) was determined using a microtiter broth dilution method. All bacterial strains were incubated overnight at 37 °C. Cultured bacteria were then diluted 10-fold in Muller–Hinton Broth (MHB) medium (Difco, Detroit, MI, USA) and incubated for 3 h to reach mid-log phase. Following the establishment of mid-log phase cultures, bacteria were inoculated into sterile 96-well plates containing serially diluted peptides. The MIC was defined as the lowest concentration of peptides that prevented observable turbidity after incubation of the plates at 37 °C for 18 to 24 h.
# [2] = system: four Gram-positive and four Gram-negative bacteria; assay type: cell-based; conditions: over the eight strains of Table 2
# Description: as §2
# [3] = system: RAW 264.7 macrophage cells; experiment: Cytotoxicity, MTT assay; assay type: cell-based, mouse; conditions: 4 µM peptide, RAW 264.7, 48 h, triplicate
# Description: We conducted the MTT assay (3-(4,5-dimethylthiazol-2-yl)-2,5-diphenyltetrazolium bromide) dye reduction experiment against RAW 264.7 macrophage cells to evaluate the cytotoxicity of the peptides, following previously published methods. RAW 264.7 cells were cultured for 24 h in the presence of 5% CO2 at 37 °C after seeding them in 96-well plates (2 × 10^4 cells/well). Subsequently, the peptides were treated at increasing concentrations and allowed to interact with the cells for 48 h. Following the incubation period, 20 μL of MTT solution (5 mg/mL in PBS) was added to each well, and the plate was further incubated at 37 °C for 4 h. The absorbance was then measured at 550 nm using a microplate ELISA reader after dissolving the formazan crystals in dimethyl sulfoxide (DMSO). Treatment with 0.1% Triton X-100 served as a positive control for 100% cytotoxicity. Each experiment was performed in triplicate.
# S. aureus = experiment: SYTOX green uptake assay; assay type: cell-based, Staphylococcus aureus; conditions: negative control
# Description: The SYTOX green experiment was utilized to assess the impact of peptides on bacterial membrane permeabilization. S. aureus cells in the mid-log phase (OD600 = 0.5) were washed three times in a buffer containing 20 mM glucose and 5 mM HEPES (pH 7.4). Subsequently, the bacterial cell suspensions were diluted in a buffer consisting of 5 mM HEPES, 100 mM KCl, and 20 mM glucose, at pH 7.4, to a concentration of 1 × 10^6 CFU/mL. After incubating for fifteen minutes in complete darkness, 0.5 μM SYTOX green was added to the bacterial suspensions. The Shimadzu fluorescence spectrophotometer RF-5300PC (Shimadzu Scientific Instruments, Kyoto, Japan) was employed to monitor SYTOX green fluorescence following the addition of peptides at a concentration of 2 × MIC. In the Shimadzu fluorescence spectrophotometer, the excitation and emission wavelengths were set at 485 nm and 520 nm, respectively.
# E. coli (KCTC 1682) = experiment: Outer membrane permeability (NPN uptake); assay type: cell-based, Escherichia coli; conditions: varying peptide concentrations; NPN fluorescence
# Description: The fluorescent probe NPN (1-N-phenylnaphthylamine) was utilized to measure the outer membrane permeability of Gram-negative E. coli. Mid-log phase E. coli cells were diluted to an OD600 of 0.05 after being washed three times in a buffer containing 5 mM HEPES, 20 mM glucose, and 5 mM KCN at pH 7.4. A 1 mM stock solution of NPN was prepared by dissolving NPN in acetone. To achieve a final concentration of 10 µM, 30 μL of the stock solution was added to the bacterial suspension. […] Fluorescence was then measured over time after the peptides were added, with the concentration increasing until it reached a steady state. ONPG (o-nitrophenyl-β-[…]), a […] substrate used for cytoplasmic membrane β-galactosidase enzyme, was employed to assess the release of β-galactosidase from E. coli ML-35, aiming to determine the inner membrane permeability of peptides. A 1.5 mM solution of ONPG was added to a sample buffer consisting of 10 mM sodium phosphate and 100 mM NaCl at pH 7.4, which was used to suspend mid-log phase E. coli ML-35 bacteria to an OD600 of 0.5. […] The fluorescence of ONPG increases when it is hydrolyzed to form o-nitrophenol. The permeability of the inner membrane of E. coli ML-35 bacteria was assessed by the influx of ONPG, a substance that was then broken down into o-nitrophenol, forming a yellow product, by the presence of β-galactosidase in the cytoplasm.
# [4] = 8 to 16 µM, sentence does not tell MRSA and MDRPA apart
molecule,measurement,setting,value
CC[C@H](C)[C@H](NC(=O)[C@H](CCCCN)NC(=O)[C@H](CCC(=O)O)NC(=O)[C@H](CCCCN)NC(=O)[C@H](CO)NC(=O)[C@H](CCCCN)NC(=O)[C@H](CCCNC(=N)N)NC(=O)[C@H](Cc1ccccc1)NC(=O)[C@H](Cc1ccccc1)NC(=O)[C@H](CC(=O)O)NC(=O)CNC(=O)[C@H](CC(C)C)NC(=O)[C@@H](N)CC(C)C)C(=O)NCC(=O)N[C@@H](CCCCN)C(=O)N[C@@H](CCC(=O)O)C(=O)N[C@@H](Cc1ccccc1)C(=O)N[C@@H](CCCCN)C(=O)N[C@@H](CCCNC(=N)N)C(=O)N[C@H](C(=O)N[C@H](C(=O)N[C@@H](CCC(N)=O)C(=O)N[C@@H](CCCNC(=N)N)C(=O)N[C@H](C(=O)N[C@@H](CCCCN)C(=O)N[C@@H](CC(=O)O)C(=O)N[C@@H](Cc1ccccc1)C(=O)N[C@@H](CC(C)C)C(=O)N[C@@H](CCCNC(=N)N)C(=O)N[C@@H](CC(N)=O)C(=O)N[C@@H](CC(C)C)C(=O)N[C@H](C(=O)N1CCC[C@H]1C(=O)N[C@@H](CCCNC(=N)N)C(=O)N[C@H](C(=O)N[C@@H](CCC(=O)O)C(=O)N[C@@H](CO)C(=O)O)[C@@H](C)O)C(C)C)[C@@H](C)CC)C(C)C)[C@@H](C)CC [LL-37],inhibition of biofilm formation,MDRPA; [4],approximately 50%
same,inhibition of biofilm formation,MRSA; [4],approximately 50%
CC[C@H](C)[C@H](NC(=O)CN)C(=O)NCC(=O)N[C@@H](C)C(=O)N[C@H](C(=O)N[C@@H](CC(C)C)C(=O)N[C@@H](CCCCN)C(=O)N[C@H](C(=O)N[C@@H](CC(C)C)C(=O)N[C@H](C(=O)N[C@H](C(=O)NCC(=O)N[C@@H](CC(C)C)C(=O)N1CCC[C@H]1C(=O)N[C@@H](C)C(=O)N[C@@H](CC(C)C)C(=O)N[C@H](C(=O)N[C@@H](CO)C(=O)N[C@@H](Cc1c[nH]c2ccccc12)C(=O)N[C@H](C(=O)N[C@@H](CCCCN)C(=O)N[C@@H](CCCNC(=N)N)C(=O)N[C@@H](CCCCN)C(=O)N[C@@H](CCCNC(=N)N)C(=O)N[C@@H](CCC(N)=O)C(=O)N[C@@H](CCC(N)=O)C(N)=O)[C@@H](C)CC)[C@@H](C)CC)[C@@H](C)O)[C@@H](C)O)C(C)C)C(C)C [Melittin],inhibition of biofilm formation,"MDRPA; MDRPA, 8 µM peptide",~90%
same,MIC,[1],8 µM
same,"GM, geometric mean of the MIC",[2],10.5 µM
same,inhibition of biofilm formation,"MRSA; MRSA, 4 µM peptide",~90%
same,cell survival rate,[3],less than 10%
Buforin-2,effect on SYTOX green fluorescence intensity,S. aureus,did not affect fluorescence intensity
same,outer membrane permeability,E. coli (KCTC 1682),No appreciable outer membrane permeability
